# Source: patent publication US20040258695A1, “Transferrin binding peptides and uses thereof” (priority 2003, published 2004)
# T1: HRP alone (UniProt P00433 31-338)
# T1 construct: Negative control probe for library 2; also called horseradish peroxidase
# T1 sequence: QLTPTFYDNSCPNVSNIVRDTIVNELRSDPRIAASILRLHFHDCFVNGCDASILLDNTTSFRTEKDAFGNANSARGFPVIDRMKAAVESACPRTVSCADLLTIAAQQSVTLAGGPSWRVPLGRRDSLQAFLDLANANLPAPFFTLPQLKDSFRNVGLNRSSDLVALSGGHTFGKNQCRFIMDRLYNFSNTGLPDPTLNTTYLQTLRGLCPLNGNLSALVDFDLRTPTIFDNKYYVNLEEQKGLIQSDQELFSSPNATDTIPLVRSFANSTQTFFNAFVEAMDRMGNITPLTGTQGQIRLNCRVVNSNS
# Key:
# [1] = tested on: TbpB N-lobe from M. haemolytica; experiment: bTf C-lobe overlapping peptide library probed with HRP-labelled M. haemolytica TbpB N-lobe; type: binding
# From the text: (§1) Transferrin binding determinants from two bovine pathogens, M. haemolytica and H. somnus, as well as potential conserved transferrin binding determinants derived therefrom, were identified as described in Example 1 and shown in Table 4 below. Briefly, purified TbpB N-lobes from M. haemolytica and H. somnus were labelled with HRP and used to probe the bTf C-lobe overlapping peptide library. The peptides from the library that bound to the indicated TbpB N-lobe are listed in the column below the species name. The common overlap sequence from adjacent peptides probed with M. haemolytica (*), H. somnus (**) or both ( ) TbpB N-lobes are indicated for the indicated regions.
# [2] = tested on: TbpB N-lobe from H. somnus; experiment: bTf C-lobe overlapping peptide library probed with HRP-labelled H. somnus TbpB N-lobe; type: binding
# From the text: as §1
# [3] = molecular target: T1, HRP alone; experiment: SPOT peptide library 2 probed with HRP alone, chemiluminescence
# [4] = molecular target: T2, human transferrin (hTf), iron loaded (human, UniProt P02787 20-698); experiment: SPOT peptide library 2 of TbpB N-lobe probed with HRP-hTf, chemiluminescence
# T2 construct: Used as a labelled probe (beta-gal conjugate for library 1, HRP conjugate for library 2 and the solid-phase assay); also called β-gal-hTf; HRP conjugated hTf
# T2 sequence (P02787 20-698 limits assumed): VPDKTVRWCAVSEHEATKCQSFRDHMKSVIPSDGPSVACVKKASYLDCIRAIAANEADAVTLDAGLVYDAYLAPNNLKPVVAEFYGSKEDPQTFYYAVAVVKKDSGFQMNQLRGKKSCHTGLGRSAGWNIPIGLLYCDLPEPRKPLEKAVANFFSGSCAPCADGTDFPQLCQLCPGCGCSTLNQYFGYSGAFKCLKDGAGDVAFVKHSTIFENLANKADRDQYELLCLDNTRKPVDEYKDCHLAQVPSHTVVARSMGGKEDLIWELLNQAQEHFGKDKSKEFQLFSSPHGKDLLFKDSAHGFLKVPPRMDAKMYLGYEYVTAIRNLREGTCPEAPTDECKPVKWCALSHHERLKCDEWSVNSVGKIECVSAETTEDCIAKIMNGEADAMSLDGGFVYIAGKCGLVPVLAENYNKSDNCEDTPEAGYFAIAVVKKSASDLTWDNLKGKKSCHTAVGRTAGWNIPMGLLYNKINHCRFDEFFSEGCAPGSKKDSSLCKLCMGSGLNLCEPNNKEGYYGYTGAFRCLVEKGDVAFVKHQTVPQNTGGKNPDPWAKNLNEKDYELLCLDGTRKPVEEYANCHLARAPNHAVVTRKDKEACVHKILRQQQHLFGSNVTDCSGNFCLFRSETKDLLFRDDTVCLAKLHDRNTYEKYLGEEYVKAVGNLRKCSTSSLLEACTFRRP
# [5] = molecular target: T2, human transferrin (hTf), iron loaded; experiment: TbpB overlapping peptide library probed with labelled hTf as in Example 1
Molecule,binding to M. haemolytica TbpB N-lobe (bound peptide listed; None = did not bind) [1],binding to H. somnus TbpB N-lobe (bound peptide listed; None = did not bind) [2],binding result [3],binding result [4],binding result [5]
"NNNEAWAKNLKKENF (TbpB N-lobes of Bovine Pathgens) [Peptide 9, bTf C-lobe library peptide]",NNNEAWAKNLKKENF,NNNEAWAKNLKKENF,–,–,–
"RDDTKCLASIAKKTY (TbpB N-lobes of Bovine Pathgens) [Peptide 16, bTf C-lobe library peptide]",RDDTKCLASIAKKTY,RDDTKCLASIAKKTY,–,–,–
"ANINWNNLKDKKSCH (TbpB N-lobes of Bovine Pathgens) [Peptide 5, bTf C-lobe library peptide]",ANINWNNLKDKKSCH,ANINWNNLKDKKSCH,–,–,–
"MVKWCAIGHQERTKC (TbpB N-lobes of Bovine Pathgens) [Peptide 1, bTf C-lobe library peptide]",MVKWCAIGHQERTKC,MVKWCAIGHQERTKC,–,–,–
"SRKDKATCVEKILNK (TbpB N-lobes of Bovine Pathgens) [Peptide 15, bTf C-lobe library peptide]",None,SRKDKATCVEKILNK,–,–,–
"CHLARGPNHAVVSRK (TbpB N-lobes of Bovine Pathgens) [Peptide 12, bTf C-lobe library peptide]",CHLARGPNHAVVSRK,CHLARGPNHAVVSRK,–,–,–
"RAMTNLRQCSTSKLL (TbpB N-lobes of Bovine Pathgens) [Peptide 18, bTf C-lobe library peptide]",RAMTNLRQCSTSKLL,RAMTNLRQCSTSKLL,–,–,–
"HAVVSRKDKATCVEK (TbpB N-lobes of Bovine Pathgens) [Peptide 14, bTf C-lobe library peptide]",HAVVSRKDKATCVEK,HAVVSRKDKATCVEK,–,–,–
"NLKKENFEVLCKDGT (TbpB N-lobes of Bovine Pathgens) [Peptide 11, bTf C-lobe library peptide]",NLKKENFEVLCKDGT,None,–,–,–
"RGPNHAVVSRKDKAT (TbpB N-lobes of Bovine Pathgens) [Peptide 13, bTf C-lobe library peptide]",RGPNHAVVSRKDKAT,RGPNHAVVSRKDKAT,–,–,–
"CAIGHQERTKCDRWS (TbpB N-lobes of Bovine Pathgens) [Peptide 2, bTf C-lobe library peptide]",CAIGHQERTKCDRWS,CAIGHQERTKCDRWS,–,–,–
"HQERTKCDRWSGFSG (TbpB N-lobes of Bovine Pathgens) [Peptide 3, bTf C-lobe library peptide]",HQERTKCDRWSGFSG,HQERTKCDRWSGFSG,–,–,–
"NTDGNNNEAWALK (NTDGNNNEAWAKNLK; TbpB N-lobes of Bovine Pathgens) [Peptide 8, bTf C-lobe library peptide]",None,NTDGNNNEAWALK,–,–,–
"RYYGYTGAFRCLVEK (TbpB N-lobes of Bovine Pathgens) [Peptide 7, bTf C-lobe library peptide]",None,RYYGYTGAFRCLVEK,–,–,–
"KCLASIAKKTYDSYL (TbpB N-lobes of Bovine Pathgens) [Peptide 17, bTf C-lobe library peptide]",KCLASIAKKTYDSYL,KCLASIAKKTYDSYL,–,–,–
"KTSDANINWNNLKDK (TbpB N-lobes of Bovine Pathgens) [Peptide 4, bTf C-lobe library peptide]",KTSDANINWNNLKDK,–,–,–,–
"AWAKNLKKENFEVLC (TbpB N-lobes of Bovine Pathgens) [Peptide 10, bTf C-lobe library peptide]",AWAKNLKKENFEVLC,None,–,–,–
"NSNERYYGYTGAFRC (TbpB N-lobes of Bovine Pathgens) [Peptide 6, bTf C-lobe library peptide]",None,NSNERYYGYTGAFRC,–,–,–
GKLFSNLQDRHKGNV (SPOT peptide immobilised on cellulose membrane) [M. catarrhalis TbpB N-lobe peptide gklfsnlqdrhkgnv],–,–,no binding,binds,–

Molecule,binding to M. haemolytica TbpB N-lobe (bound peptide listed; None = did not bind) [1],binding to H. somnus TbpB N-lobe (bound peptide listed; None = did not bind) [2],binding result [3],binding result [4],binding result [5]
SALPVGGVATYKGTW (library peptide) [H. influenzae TbpB peptide SALPVGGVATYKGTW],–,–,–,–,binds
NFKEKKLTGKLFSNL (SPOT peptide immobilised on cellulose membrane) [M. catarrhalis TbpB N-lobe peptide nfkekkltgklfsnl],–,–,no binding,binds,–
WNLGPVGGVFYNGTT (SPOT peptide immobilised on cellulose membrane) [M. catarrhalis TbpB N-lobe peptide wnlgpvggvfyngtt],–,–,no binding,binds,–
AVKYKGHWDFMTDVA (SPOT peptide immobilised on cellulose membrane) [M. catarrhalis TbpB N-lobe peptide avkykghwdfmtdva],–,–,no binding,binds,–
AMGYGMALSKINLHN (SPOT peptide immobilised on cellulose membrane) [M. catarrhalis TbpB N-lobe peptide amgygmalskinlhn],–,–,no binding,binds,–
IQSWSLRDLPNKKFY (library peptide) [H. influenzae TbpB peptide IQSWSLRDLPNKKFY],–,–,–,–,binds
YKGTWSFITAAENGK (library peptide) [H. influenzae TbpB peptide YKGTWSFITAAENGK],–,–,–,–,binds
YDIDANIHGNRFRGS (SPOT peptide immobilised on cellulose membrane) [M. catarrhalis TbpB N-lobe peptide ydidanihgnrfrgs],–,–,no binding,binds,–
DFMTDVANRRNRFSE (SPOT peptide immobilised on cellulose membrane) [M. catarrhalis TbpB N-lobe peptide dfmtdvanrrnrfse],–,–,no binding,binds,–
KKLTGKLFSNLQDRH (SPOT peptide immobilised on cellulose membrane) [M. catarrhalis TbpB N-lobe peptide kkltgklfsnlqdrh],–,–,no binding,binds,–
GKFLAHDKKVLGVFS (library peptide) [H. influenzae TbpB peptide GKFLAHDKKVLGVFS],–,–,–,–,binds
KTERYDIDANIHGNR (SPOT peptide immobilised on cellulose membrane) [M. catarrhalis TbpB N-lobe peptide kterydidanihgnr],–,–,no binding,binds,–
FSEVKENSQAGWYYG (SPOT peptide immobilised on cellulose membrane) [M. catarrhalis TbpB N-lobe peptide fsevkensqagwyyg],–,–,no binding,binds,–
AALNLFDRNKPSLLN (library peptide) [H. influenzae TbpB peptide AALNLFDRNKPSLLN],–,–,–,–,binds
KGHWDFMTDVANRRN (SPOT peptide immobilised on cellulose membrane) [M. catarrhalis TbpB N-lobe peptide kghwdfmtdvanrrn],–,–,no binding,binds,–
TDANKSQNRTHKLYD (library peptide) [H. influenzae TbpB peptide TDANKSQNRTHKLYD],–,–,–,–,binds
RNSGGGQAYSRRSAT (library peptide) [H. influenzae TbpB peptide RNSGGGQAYSRRSAT],–,–,–,–,binds
APNSNENRHGQKYVY (library peptide) [H. influenzae TbpB peptide APNSNENRHGQKYVY],–,–,–,–,binds
